# From US8389555B2, “Medicaments” (Motac Neuroscience Limited, priority 2007, dated 2013)
# Columns and labels:
# [1] = molecular target: T1, human dopamine D3 receptors (Homo sapiens, UniProt P35462); experiment: Dopamine D3 receptor binding assay ([3H]spiperone, CHO cell membranes); conditions: for Ki: human D3 receptors in CHO cells, 0.2 nM [3H]spiperone, mean ± SEM, read-out: Affinity Ki (D3); for Selectivity Ki(D2)/Ki(D3): ratio of Ki(D2) to Ki(D3)
# T1 construct: expressed in transfected cells
# T1 sequence (P35462 whole entry): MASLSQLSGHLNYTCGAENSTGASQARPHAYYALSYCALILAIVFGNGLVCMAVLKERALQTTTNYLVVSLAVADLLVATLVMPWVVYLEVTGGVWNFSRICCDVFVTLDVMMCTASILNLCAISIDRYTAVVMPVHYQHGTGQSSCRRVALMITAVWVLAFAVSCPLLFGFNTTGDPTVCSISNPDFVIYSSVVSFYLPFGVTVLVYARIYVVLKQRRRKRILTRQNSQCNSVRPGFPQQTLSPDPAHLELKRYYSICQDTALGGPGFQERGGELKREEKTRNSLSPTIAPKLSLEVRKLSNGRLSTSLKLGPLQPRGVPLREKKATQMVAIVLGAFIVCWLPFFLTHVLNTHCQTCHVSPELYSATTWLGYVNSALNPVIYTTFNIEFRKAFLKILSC
# Method: (§1) Compounds synthesized in Examples A, B, C and D were assayed to test their affinity for dopamine D3 and D2 receptors.
# (§2) METHODS: Dopamine D2S and D3 Receptor Binding Assays
# Human D3 receptors stably expressed in CHO cells were used as described by Sokoloff et al. (Sokoloff, P. et al., Eur. J. Pharmacol. 1992, 225, 331-337). The cell line was cultured in Dulbecco's modified Eagle's medium supplemented with 2 mM glutamine, and 10% dialyzed fetal bovine serum, and were grown in an atmosphere of 5% CO2 at 37° C. (Gibco™).
# (§3) Human D2S- and D3 receptors expressing cell lines were grown to confluence. The medium was removed, and the cells were washed with 10 ml PBS buffer (140 mM NaCl, 3 mM KCl, 1.5 mM KH2PO4, 8 mM Na2HPO4, pH 7.4) at 4° C. After removing the wash buffer, the cells were scraped from the flasks into 15 ml of ice-cold media, and centrifuged at 3,000 rpm for 10 minutes at 4° C. After centrifugation the medium was removed and the […] resuspended in ice-cold Tris-HCl buffer containing 5 mM MgCl2, pH 7.4 and disrupted with a Polytron and centrifuged at 20,000 rpm, for 30 minutes at 4° C. The pellet was resuspended by sonication in ice-cold Tris-HCl buffer (containing 5 mM MgCl2, pH 7.4), membrane aliquots were stored at −70° C. Determination of membrane protein was carried out by the method of Bradford (Bradford, M. M. Anal Biochem 1976, 72, 248-54).
# (§4) Cell membranes containing human D2S and D3 receptors from CHO cells were thawed, rehomogenized with sonication at 4° C. in Tris-HCl, pH 7.4 containing 120 mM NaCl, 5 mM KCl, 2 mM CaCl2 and 1 mM MgCl2 (incubation buffer), and incubated with 0.2 nM [^3H]spiperone (106 Ci·mmol^−1, Amersham Biosciences, Freiburg, Germany), and drug diluted in incubation buffer. Non-specific binding was determined in the presence of 10 μM BP 897 ((Wermuth, C. G. et al. in Chem. Abstr. (Eur. Pat. 0779284, 1997)). Incubations were run at 25° C. for 120 min, and terminated by rapid filtration through PerkinElmer GF/B glass fibre filters (PerkinElmer Life Sciences, Rodgau, Germany) coated in 0.3% polyethylenimine (Sigma-Aldrich, Taufkirchen, Germany) using an Inotech cell harvester (Inotech AG, Dottikon, Switzerland). Unbound radioligand was removed with four washes of 1 ml of ice-cold 50 mM Tris-HCl buffer, pH 7.4, containing 120 mM NaCl. The filters were soaked in 9 ml Beta plate scint scintillator and counted using a PerkinElmer MicroBeta®Trilux scintillation counter (PerkinElmer Life Sciences). Competition binding data were analyzed by the software GraphPad Prism™ (2000, version 3.02, San Diego, Calif., USA), using non-linear least squares fit. For detailed screening the compounds have been tested at seven concentrations in triplicate carrying out three to five separate binding experiments for human dopamine D2S and for human dopamine D3 receptors and expressed as mean±standard error of the mean (SEM). Ki values were calculated from the IC50 values according to Cheng-Prusoff equation (Cheng, Y. C., Prusoff, W. H. Biochem. Pharmacol. 1973, 22, 3099-3108.).
# [2] = molecular target: T2, recombinant human D2(short) dopamine receptor (Homo sapiens, UniProt P14416); experiment: Dopamine D2S receptor binding assay ([3H]spiperone, CHO cell membranes); conditions: human D2S receptors in CHO cells, 0.2 nM [3H]spiperone, mean ± SEM; read-out: Affinity Ki (D2)
# T2 construct: expressed in transfected cells; host or cells: CHO-D2S cells (per Hayes et al. 1992)
# T2 sequence (P14416 1-414 isoform P14416-2): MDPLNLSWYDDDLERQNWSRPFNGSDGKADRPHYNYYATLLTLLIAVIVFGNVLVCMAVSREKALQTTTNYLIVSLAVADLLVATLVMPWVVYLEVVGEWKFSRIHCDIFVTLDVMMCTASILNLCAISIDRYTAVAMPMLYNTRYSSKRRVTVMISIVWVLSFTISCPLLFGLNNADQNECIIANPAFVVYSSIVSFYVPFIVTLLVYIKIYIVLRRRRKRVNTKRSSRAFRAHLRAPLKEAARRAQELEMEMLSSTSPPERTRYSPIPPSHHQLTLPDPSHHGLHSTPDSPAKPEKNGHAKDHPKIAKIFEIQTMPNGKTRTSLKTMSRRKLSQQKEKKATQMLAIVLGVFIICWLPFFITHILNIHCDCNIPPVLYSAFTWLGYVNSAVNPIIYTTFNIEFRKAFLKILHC
# Method: as §1, §2
# CHO-D2S cells, expressing the recombinant human D2(short) dopamine receptor gene, (Hayes, G. et al., J. Mol. Endocrinol. 1992, 6, 920-926) were grown in Dulbecco's modified Eagle's medium/nutrient mixture F12 1:1 mixture supplemented with 2 mM glutamine, 10% fetal bovine serum, and 10 μl·ml^−1 penicillin/streptomycin in an atmosphere of 5% CO2 at 37° C. (Gibco™, Karlsruhe, Germany).
# as §3, §4
Ki [1],Selectivity Ki(D2)/Ki(D3) [1],Ki [2],SMILES
0.089 ± 0.0017 µM,2,0.14 ± 0.122 µM,"CCN(CCCN1CCN(c2ccccc2OC)CC1)C1CCc2ncsc2C1 (stereo not drawn) [Compound 29, Ethyl-{3-[4-(2-methoxy-phenyl)-piperazin-1-yl]-propyl}-(4,5,6,7-tetrahydro-benzothiazol-6-yl)-amine]"
0.00561 ± 0.0003 µM,375,2.1 ± 0.327 µM,"CCN(CCCCNC(=O)c1ccc2ncsc2c1)C1CCc2ncsc2C1 (stereo not drawn) [Compound 14, Benzothiazole-6-carboxylic acid {4-[ethyl-(4,5,6,7-tetrahydro-benzothiazol-6-yl)-amino]-butyl}-amide]"
0.00646 ± 0.00325 µM,1152,7.44 ± 2.29 µM,"CCCN(CCCCNC(=O)N1CCCCC1)C1CCc2ncsc2C1 (stereo not drawn) [Compound 21, Piperidine-1-carboxylic acid {4-[propyl-(4,5,6,7-tetrahydro-benzothiazol-6-yl)-amino]-butyl}-amide]"
0.00225 ± 0.00124 µM,1422,3.19 ± 1.47 µM,"CCCN(CCCCNC(=O)N1Cc2ccccc2C1)C1CCc2ncsc2C1 (stereo not drawn) [Compound 27, 1,3-Dihydro-isoindole-2-carboxylic acid {4-[propyl-(4,5,6,7-tetrahydro-benzothiazol-6-yl)-amino]-butyl}-amide]"
0.0274 ± 0.0148 µM,192,5.27 ± 1.85 µM,"CCCN(CCN1CCN(C(=O)c2ccccc2)CC1)C1CCc2ncsc2C1 (stereo not drawn) [Compound 38, [2-(4-Benzoyl-piperazin-1-yl)-ethyl]-propyl-(4,5,6,7-tetrahydro-benzothiazol-6-yl)-amine]"
0.00723 ± 0.001 µM,572,4.13 ± 1.56 µM,"CCCN(CCCCC(=O)N1CCN(c2ccccc2)CC1)C1CCc2ncsc2C1 (stereo not drawn) [Compound 66, 1-(4-Phenylpiperazin-1-yl)-5-(propyl-(4,5,6,7-tetrahydrobenzothiazol-6-yl)amino)pentan-1-one]"
0.083 ± 0.002 µM,30,2.52 ± 0.144 µM,"CCCN(CCCCNC(=O)c1cnc(-c2ccc(Cl)cc2)s1)C1CCc2ncsc2C1 (stereo not drawn) [Compound 19, 2-(4-Chloro-phenyl)-thiazole-5-carboxylic acid {4-[propyl-(4,5,6,7-tetrahydro-benzothiazol-6-yl)-amino]-butyl}-amide]"
0.00226 ± 0.00079 µM,746,1.68 ± 0.382 µM,"CCCN(CCCCNC(=O)c1ccccc1)C1CCc2ncsc2C1 (stereo not drawn) [Compound 1, N-{4-[Propyl-(4,5,6,7-tetrahydro-benzothiazol-6-yl)-amino]-butyl}-benzamide]"
0.00095 ± 0.0002 µM,486,0.459 ± 0.083 µM,"C=CCN(CCCCNC(=O)c1ccc2ccccc2c1)C1CCc2ncsc2C1 (stereo not drawn) [Compound 6, Naphthalene-2-carboxylic acid {4-[allyl-(4,5,6,7-tetrahydro-benzothiazol-6-yl)-amino]-butyl}-amide]"
0.00209 ± 0.00057 µM,1640,3.43 ± 1.29 µM,"CCCN(CCCCNC(=O)N1CCN(c2ccccc2)CC1)C1CCc2ncsc2C1 (stereo not drawn) [Compound 61, 4-Phenylpiperazine-1-carboxylic acid {4-[propyl-(4,5,6,7-tetrahydrobenzothiazol-6-yl)amino]butyl}amide]"
0.00065 ± 9e-05 µM,531,0.347 ± 0.133 µM,CCCN(CCCCNC(=O)c1ccc2ncsc2c1)C1CCc2ncsc2C1 (stereo not drawn) [Compound 15]
0.00811 ± 0.00123 µM,495,4.01 ± 0.383 µM,"CCCN(CCCCNC(=O)C=Cc1ccccc1)C1CCc2ncsc2C1 (stereo not drawn) [Compound 16, N-{4-[Propyl-(4,5,6,7-tetrahydro-benzothiazol-6-yl)-amino]-butyl}-cinnamoylamide]"
0.00057 ± 4e-05 µM,1479,0.842 ± 0.035 µM,"CCCN(CCCCNC(=O)C=Cc1ccc(F)cc1)C1CCc2ncsc2C1 (stereo not drawn) [Compound 18, 4-Fluoro-N-{4-[propyl-(4,5,6,7-tetrahydro-benzothiazol-6-yl)-amino]-butyl}-cinnamoylamide]"
